The target of assay [1] is T1, NLRC4 inflammasome (Mus musculus, UniProt Q3UP24).
T1 construct: endogenous in cells; host or cells: J774A.1 murine macrophage cell line (LPS + transfected flagellin)
In words: NLRC4 inflammasome assay in J774A.1 cells (LPS/flagellin, IL-1β ELISA). To be noted: compound 10 μM. It counts as cell-based, murine. The protocol: (§1) J774A.1 cells were plated into a 96-well plate. […] Cells were treated with LPS (1 μg/mL) and test compounds for 1 h. Flagellin or poly-deoxyadenylic-deoxythymidylic acid sodium salt (Poly(dA:dT)) was used to induce the formation of the NLRC4 and the AIM2 inflammasomes.

Assay [2] addresses T2, NLRP3 inflammasome (Mus musculus, UniProt Q8R4B8). In words: IL-1β release from mouse peritoneal macrophages upon LPS/ATP challenge (ELISA). It counts as cell-based. Further details: endogenous in cells; host or cells: thioglycolate-elicited peritoneal macrophages from C57BL/6 mice. The protocol:
Next, test compounds were added for 30 min. […] Primary peritoneal macrophages were similarly treated as described with J774A.1 cell line followed by ELISA analysis for IL-β production.
C57BL/6 mice were injected with 1 mL of 3% thioglycolate into the peritoneal cavity. Peritoneal cells were collected 3 days after injection by flushing the peritoneal cavity with cold PBS. The peritoneal cells were plated in complete RPMI1640 media containing 10% FBS, 100 U/mL penicillin, 100 μg/mL streptomycin. Floating cells were removed after 2 h and adherent peritoneal macrophages were used for experiments as described above.
(In an ELISA, binding on a coated surface is turned into a signal by an enzyme label.)

Assay [3] has as its target T3, AIM2 inflammasome (Mus musculus, UniProt Q91VJ1).
T3 construct: endogenous in cells; host or cells: J774A.1 murine macrophage cell line (LPS + Poly(dA:dT))
T3 sequence (Q91VJ1 1-354): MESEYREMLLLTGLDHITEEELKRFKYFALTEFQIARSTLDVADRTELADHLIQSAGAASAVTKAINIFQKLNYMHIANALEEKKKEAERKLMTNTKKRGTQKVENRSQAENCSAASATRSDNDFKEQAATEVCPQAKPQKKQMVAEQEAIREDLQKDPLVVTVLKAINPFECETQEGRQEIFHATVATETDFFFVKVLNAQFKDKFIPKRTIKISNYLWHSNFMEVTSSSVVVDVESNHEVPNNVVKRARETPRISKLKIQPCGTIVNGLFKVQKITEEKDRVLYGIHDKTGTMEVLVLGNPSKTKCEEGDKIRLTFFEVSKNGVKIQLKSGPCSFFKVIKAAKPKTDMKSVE
In words: AIM2 inflammasome assay in J774A.1 cells (LPS/Poly(dA:dT), IL-1β ELISA). It counts as cell-based, murine. The conditions noted are these: compound 10 μM. The protocol: as §1

Assay [4] concerns EAE. The assay is described as follows: EAE development in MOG-immunized mice. The format is in vivo, C57BL/6 mice. The conditions noted are these: from disease onset, to day 35. From the text:
C57BL/6 mice (n=10) were immunized subcutaneously in the dorsal flanks with MOG35-55 peptide emulsified in CFA on day 0. […] To assess the therapeutic effect in clinically relevant setting, treatment was started on disease onset (reduced tail tone, clinical score=1). Control mice received DMSO.

Assay [5] deals with T2, NLRP3 inflammasome. In words: IL-1β release from J774A.1 cells upon LPS/ATP stimulation (ELISA).
Method: Next, test compounds were added for 30 min. ATP (5 mM) was added at the same time when compounds were added to induce NLRP3 inflammasome activation. After 30 min, the supernatants were collected and the level of IL-1β was measured with a mouse IL-1β ELISA kit following the manufacturer's instructions. Primary peritoneal macrophages were similarly treated as described with J774A.1 cell line followed by ELISA analysis for IL-β production.

The IC50 is the concentration at which inhibition is half-maximal. A lower IC50 goes with higher potency.

T2 sequence (Q8R4B8 whole entry): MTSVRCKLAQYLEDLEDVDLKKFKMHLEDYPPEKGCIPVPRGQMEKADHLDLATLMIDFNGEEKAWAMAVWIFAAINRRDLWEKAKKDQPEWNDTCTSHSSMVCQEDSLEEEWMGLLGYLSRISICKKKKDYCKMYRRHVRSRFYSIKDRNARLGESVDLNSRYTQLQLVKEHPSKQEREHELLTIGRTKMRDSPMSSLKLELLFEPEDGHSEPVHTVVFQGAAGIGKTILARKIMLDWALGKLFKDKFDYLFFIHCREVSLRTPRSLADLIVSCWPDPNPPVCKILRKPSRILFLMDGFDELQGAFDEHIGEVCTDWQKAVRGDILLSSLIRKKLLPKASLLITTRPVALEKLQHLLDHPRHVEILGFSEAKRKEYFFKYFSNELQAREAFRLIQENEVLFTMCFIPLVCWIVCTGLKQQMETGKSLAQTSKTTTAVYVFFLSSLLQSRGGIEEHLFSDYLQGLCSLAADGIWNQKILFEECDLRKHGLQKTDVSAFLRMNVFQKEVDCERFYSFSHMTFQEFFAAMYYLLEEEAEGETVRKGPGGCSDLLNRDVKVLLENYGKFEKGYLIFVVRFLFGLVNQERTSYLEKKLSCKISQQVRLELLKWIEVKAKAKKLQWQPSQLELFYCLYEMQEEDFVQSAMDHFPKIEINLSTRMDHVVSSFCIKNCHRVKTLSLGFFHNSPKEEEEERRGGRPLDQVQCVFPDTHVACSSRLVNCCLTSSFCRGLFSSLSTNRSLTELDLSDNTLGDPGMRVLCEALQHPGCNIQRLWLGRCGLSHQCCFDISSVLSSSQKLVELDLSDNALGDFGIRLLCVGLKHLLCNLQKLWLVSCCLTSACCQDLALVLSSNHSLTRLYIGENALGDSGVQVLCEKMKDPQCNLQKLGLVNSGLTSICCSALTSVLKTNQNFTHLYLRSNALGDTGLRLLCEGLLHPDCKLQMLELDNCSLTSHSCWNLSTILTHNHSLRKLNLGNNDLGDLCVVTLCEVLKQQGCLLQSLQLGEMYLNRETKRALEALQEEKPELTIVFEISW

Take `C#CCNS(=O)(=O)c1ccc(CCN(Cc2cc(Cl)ccc2OC)C(=O)C=C)cc1` [HL16, N-(5-chloro-2-methoxybenzyl)-N-(4-(N-(prop-2-yn-1-yl)sulfamoyl)phenethyl)acryl-amide]: in assay [1], the “effect on IL-1β production by NLRC4 inflammasome” value was “significantly inhibited”. Moreover, in assay [2], the “inhibitory activity in mouse peritoneal macrophages” value was “confirmed”. Moreover, the “effect on IL-1β production by AIM2 inflammasome” value in assay [3] is given as “significantly inhibited”. Besides, the “EAE induction (clinical score)” value in assay [4] (2 mg/kg i.p.) and in assay [4] (10 mg/kg i.p.) was “substantially blocked induction of EAE” in each case. For `CNS(=O)(=O)c1ccc(CCN(Cc2cc(Cl)ccc2OC)C(=O)Cc2ccccc2)cc1` [SZ-N3I-12], the IC50 in assay [5] is < 1 µM.

`C=CCN(CCc1ccc(S(=O)(=O)NC)cc1)Cc1cc(Cl)ccc1OC` [SZ-N3I-14]: in assay [5], the IC50 lay in the range of 1 to 10 µM.

Compound `CCCCCC(=O)N(CCc1ccc(S(=O)(=O)NC)cc1)Cc1cc(Cl)ccc1OC` [SZ-N3I-16] had an IC50 in assay [5] of 1 to 10 µM. For `CCC(=O)N(CCc1ccc(S(=O)(=O)NC)cc1)Cc1cc(Cl)ccc1OC` [SZ-N3I-18], the IC50 in assay [5] lay in the range of 1 to 10 µM. In assay [5], `CCCN(CCc1ccc(S(=O)(=O)NC)cc1)Cc1cc(Cl)ccc1OC` [SZ-N3I-20] gave an IC50 of 1 to 10 µM. With `COc1ccc(CNS(=O)(=O)c2ccc(CCN(Cc3cc(Cl)ccc3OC)C(=O)Cc3ccccc3)cc2)cc1` [SZ-N3I-22], the IC50 in assay [5] was < 1 µM. In the case of `CCOc1ccc(Cl)cc1CN(CCc1ccc(S(=O)(=O)NCc2ccc(OC)cc2)cc1)C(=O)Cc1ccccc1` [SZ-N3I-23], the IC50 in assay [5] was in the range of 1 to 10 µM. As for `CCCOc1ccc(Cl)cc1CN(CCc1ccc(S(=O)(=O)NCc2ccc(OC)cc2)cc1)C(=O)Cc1ccccc1` [SZ-N3I-24], in assay [5], the IC50 was < 1 µM. In assay [5], `COc1ccc(CNS(=O)(=O)c2ccc(CCN(Cc3cc(Cl)ccc3OCC3CC3)C(=O)Cc3ccccc3)cc2)cc1` [SZ-N3I-25] showed an IC50 of 1 to 10 µM. As for `C=CC(=O)N(CCc1ccc(S(=O)(=O)NCc2ccc(OC)cc2)cc1)Cc1cc(Cl)ccc1OC` [SZ-N3I-26], in assay [5], the IC50 is < 1 µM. Turning to `C=CCOc1ccc(Cl)cc1CN(CCc1ccc(S(=O)(=O)NCc2ccc(OC)cc2)cc1)C(=O)Cc1ccccc1` [SZ-N3I-27], the IC50 in assay [5] is < 1 µM. In assay [5], `COc1ccc(CNS(=O)(=O)c2ccc(CCN(Cc3cc(Cl)ccc3OCc3ccccc3)C(=O)Cc3ccccc3)cc2)cc1` [SZ-N3I-28] registered a half-maximal inhibitory concentration (IC50) of 1 to 10 µM. Still for that read-out and setting: for `CCCCCCCOc1ccc(Cl)cc1CN(CCc1ccc(S(=O)(=O)NCc2ccc(OC)cc2)cc1)C(=O)Cc1ccccc1` [SZ-N3I-29] the value was > 30 µM; for `CCCCN(CCCC)S(=O)(=O)c1ccc(CCN(Cc2cc(Cl)ccc2OC)C(=O)Cc2ccccc2)cc1` [SZ-N3I-30], 1 to 10 µM. Turning to `CCCCN(CCCC)S(=O)(=O)c1ccc(CCN(Cc2cc(Cl)ccc2OCCC)C(=O)Cc2ccccc2)cc1` [SZ-N3I-31], in assay [5], the IC50 is > 30 µM.

With `C=CCN(CCc1ccc(S(=O)(=O)NC)cc1)C(=O)c1cc(Cl)ccc1C(=O)c1ccccc1` [SZ-N3I-32], in assay [5], the IC50 fell in the range of 1 to 10 µM. On to `CNS(=O)(=O)c1cc(CCNC(=O)c2cc(Cl)ccc2OC)co1` [SZ-N3I-33], for which, in assay [5], the IC50 was in the range of 1 to 10 µM. Consider `CCCOc1ccc(Cl)cc1CN(CCc1ccc(C(=O)OC)cc1)C(=O)Cc1ccccc1` [SZ-N3I-35], for which, in assay [5], the IC50 was < 1 µM. On to `CCCOc1ccc(Cl)cc1CN(CCc1ccc(C(=O)NC)cc1)C(=O)Cc1ccccc1` [SZ-N3I-36], for which the IC50 in assay [5] fell in the range of 1 to 10 µM.

For `C#CCNC(=O)c1ccc(CCN(Cc2cc(Cl)ccc2OCCC)C(=O)Cc2ccccc2)cc1` [SZ-N3I-37], in assay [5], the IC50 is < 1 µM. With `CCCCN(CCCC)C(=O)c1ccc(CCN(Cc2cc(Cl)ccc2OCCC)C(=O)Cc2ccccc2)cc1` [SZ-N3I-38], in assay [5], the IC50 was < 1 µM.

Consider `CCCOc1ccc(Cl)cc1CN(CCc1ccc(C(=O)NCc2ccc(OC)cc2)cc1)C(=O)Cc1ccccc1` [SZ-N3I-39], for which, in assay [5], the IC50 was < 1 µM. Take `CCCOc1ccc(Cl)cc1CN(CCc1ccc(C(=O)OC)cc1)C(=O)Cc1ccsc1` [SZ-N3I-60]: the half-maximal inhibitory concentration (IC50) in assay [5] lay in the range of 1 to 10 µM.

Take `C#CCNC(=O)c1ccc(CCN(Cc2cc(Cl)ccc2OCCC)C(=O)Cc2ccsc2)cc1` [SZ-N3I-61]: the IC50 in assay [5] is < 1 µM. Regarding `COc1ccc(Cl)cc1C(=O)NCCc1ccc(S(=O)(=O)NCCOCCOCCCCCCCl)cc1` [SZ-N3I-62], the IC50 in assay [5] lay in the range of 1 to 10 µM. As to `O=C(NCCc1ccc(S(=O)(=O)NCc2ccccc2)cc1)c1cc(Cl)ccc1C(=O)c1ccccc1` [SZ-N3I-63], the IC50 in assay [5] is < 1 µM. In turn, `O=C(NCCc1ccc(S(=O)(=O)N2CCCC2)cc1)c1cc(Cl)ccc1C(=O)c1ccccc1` [SZ-N3I-64] registered an IC50 in assay [5] of 1 to 10 µM.

For the compound `O=C(NCCc1ccc(S(=O)(=O)NCc2ccccc2)cc1)c1cc(Cl)ccc1C(O)c1ccccc1` (centres unmarked) [SZ-N3I-65], the IC50 in assay [5] was 1 to 10 µM.

Consider `O=C(NCCc1ccc(S(=O)(=O)N2CCCC2)cc1)c1cc(Cl)ccc1C(O)c1ccccc1` (centres unmarked) [SZ-N3I-66], for which the IC50 in assay [5] lay in the range of 1 to 10 µM. On to `C#CCNS(=O)(=O)c1ccc(CCN(CCCCC)Cc2cc(Cl)ccc2OCCC)cc1` [SZ-N3I-67], for which, in assay [5], the IC50 lay in the range of 1 to 10 µM. With `C#CCNS(=O)(=O)c1ccc(CCN(Cc2cc(Cl)ccc2OCCC)C(C)C)cc1` [SZ-N3I-68], the IC50 in assay [5] was 1 to 10 µM. In assay [5], `CCCOc1ccc(Cl)cc1CN(CCc1ccc(S(=O)(=O)N2CCNCC2)cc1)C(=O)Cc1ccsc1` [SZ-N3I-69] returned an IC50 of 1 to 10 µM.

Compound `C#CCNS(=O)(=O)c1ccc(CCN(Cc2cc(Cl)ccc2OCCC)C(=O)C(N)C(C)C)cc1` (centres unmarked) [SZ-N3I-70] gave an IC50 in assay [5] of 1 to 10 µM.

The compound `C#CCNS(=O)(=O)c1ccc(CCN(Cc2cc(Cl)ccc2OCCC)C(=O)[C@@H]2CCCN2)cc1` [SZ-N3I-71] displayed an IC50 in assay [5] of 1 to 10 µM.

With `C#CCNS(=O)(=O)c1ccc(CCN(Cc2cc(Cl)ccc2OCCC)C(=O)[C@H]2CCCN2)cc1` [SZ-N3I-72], in assay [5], the IC50 was in the range of 1 to 10 µM. `C#CCNS(=O)(=O)c1ccc(CCN(Cc2cc(Cl)ccc2OCCN2CCOCC2)C(=O)Cc2ccsc2)cc1` [SZ-N3I-73] registered an IC50 in assay [5] of 1 to 10 µM. In the case of `C#CCNS(=O)(=O)c1ccc(CCN(Cc2cc(Cl)ccc2OCCO)C(=O)Cc2ccsc2)cc1` [SZ-N3I-74], the IC50 in assay [5] lay in the range of 1 to 10 µM. On to `C#CCNS(=O)(=O)c1ccc(CCN(Cc2cc(Cl)ccc2OCCC)C(=O)[C@H]2NCCS2)cc1` [SZ-N3I-75], for which the IC50 in assay [5] is 1 to 10 µM.

Take `C#CCNS(=O)(=O)c1ccc(CCN(Cc2cc(Cl)ccc2OCCC)C(=O)[C@H](N)Cc2ccccc2)cc1` [SZ-N3I-77]: the IC50 in assay [5] lay in the range of 1 to 10 µM. Regarding `C#CCNS(=O)(=O)c1ccc(CCN(Cc2cc(Cl)ccc2OCCC)C(=O)[C@@H](N)Cc2cccs2)cc1` [SZ-N3I-78], the IC50 in assay [5] was < 1 µM. Consider `C#CCNS(=O)(=O)c1ccc(CCN(Cc2cc(Cl)ccc2OCCC)C(=O)[C@@H](N)Cc2ccsc2)cc1` [SZ-N3I-79], for which the 50% inhibitory concentration (IC50) in assay [5] is < 1 µM. The same measure, in the same setting: the value for `CCCOc1ccc(Cl)cc1CN(CCc1ccc(S(=O)(=O)N2CCOCC2)cc1)C(=O)Cc1ccsc1` [SZ-N3I-80] was < 1 µM; that for `C#CCNS(=O)(=O)c1ccc(CCN(Cc2cc(Cl)ccc2O)C(=O)Cc2ccsc2)cc1` [SZ-N3I-81] was < 1 µM; that for `C#CCCC1(CCOc2ccc(Cl)cc2CN(CCc2ccc(S(=O)(=O)NCC#C)cc2)C(=O)Cc2ccsc2)N=N1` [SZ-N3I-82] was < 1 µM.

As for `C#CCNS(=O)(=O)c1ccc(CCN(Cc2cc(Cl)ccc2[N+](=O)[O-])C(=O)Cc2ccsc2)cc1` [SZ-N3I-83], the IC50 in assay [5] is < 1 µM. `C#CCNS(=O)(=O)c1ccc(CCN(Cc2cc(Cl)ccc2OCCC)C(=O)[C@H](N)c2ccsc2)cc1` [SZ-N3I-84] returned an IC50 in assay [5] of 1 to 10 µM. As for `C#CCNS(=O)(=O)c1ccc(CCN(Cc2cc(Cl)ccc2OCCC)C(=O)[C@@H](N)c2ccsc2)cc1` [SZ-N3I-85], the IC50 in assay [5] was < 1 µM. Consider `C#CCNS(=O)(=O)c1ccc(CCN(Cc2cc(Cl)ccc2N)C(=O)Cc2ccsc2)cc1` [SZ-N3I-86], for which the IC50 in assay [5] was 1 to 10 µM. With `C#CCNS(=O)(=O)c1ccc(CCN(Cc2cc(Cl)ccc2[N+](=O)[O-])C(=O)[C@@H](N)Cc2cccs2)cc1` [SZ-N3I-87], in assay [5], the IC50 is < 1 µM. As for `C#CCNS(=O)(=O)c1ccc(CCN(Cc2cccc3c2OCO3)C(=O)Cc2ccsc2)cc1` [SZ-N3I-88], in assay [5], the IC50 was < 1 µM. For `C#CCNS(=O)(=O)c1ccc(CCN(Cc2cc(Cl)ccc2C(F)(F)F)C(=O)Cc2ccsc2)cc1` [SZ-N3I-89], in assay [5], the IC50 was < 1 µM.

Source of the values: patent US12221406B2, “Compounds as NLRP3 inflammasome inhibitors and compositions and uses thereof” (VIRGINIA COMMONWEALTH UNIVERSITY, priority 2019, dated 2025).
